Patent US10350210B2, “EGFR and ALK dual inhibitor” (PRECEDO PHARMACEUTICALS CO., LTD, priority 2015, dated 2019)

Experiments:
Assay type in all cases: cell-based
NCI-H1975 = assay: Growth of cancer cells (Cell Titer-Glo viability), NCI-H1975; conditions: Homo sapiens; NCI-H1975 (EGFR L858R/T790M double mutant), 72 hrs
Procedure, shortened: (§1)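 Cells are counted as viable by CellTiter-Glo chemiluminescence. Murine BaF3 lines depend on a stably transfected TEL-fused kinase after IL-3 withdrawal, and the NSCLC lines express mutant EGFR.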

PC-9 = assay: Growth of cancer cells (Cell Titer-Glo viability), PC-9; conditions: Homo sapiens; PC-9 (EGFR delE746_A750 mutant), 72 hrs
Procedure, shortened: as §1

HCC827 = assay: Growth of cancer cells (Cell Titer-Glo viability), HCC827; conditions: Homo sapiens; HCC827 (mutant EGFR del19), 72 hrs
Procedure, shortened: (§2)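 Mouse BaF3 cells retrovirally transduced with human kinase fused to N-terminal TEL fragment, then IL-3 withdrawn so proliferation depends on the transgene. HCC827 carries EGFR del19 and NCI-H3255 EGFR L858R. Viable cells were quantified by CellTiter-Glo chemiluminescence on a microplate reader.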

NCI-H3122 = assay: Growth of cancer cells (Cell Titer-Glo viability), NCI-H3122; conditions: Homo sapiens; NCI-H3122 (expressing ALK gene), 72 hrs; read-out: GI50
BaF3 = assay: Cell growth (Cell Titer-Glo viability), BaF3; conditions: BaF3 mouse primary B cell, 72 hrs
BaF3-TEL-INSR = assay: Cell growth (Cell Titer-Glo viability), BaF3-TEL-INSR; conditions: Mus musculus; BaF3-TEL-INSR (stably expressing INSR protein), 72 hrs
From the text: (§3) By testing the effect of the novel kinase inhibitors on the proliferation of cancer cells, the selectivity of the compounds of the present disclosure in inhibiting the proliferation of cancer cells was further assessed. In this example, human non-small cell lung cancer cell NCI-H1975 (expressing EGFR L858R/T790M double mutant gene), human skin squamous carcinoma cell A431 (expressing wild-type EGFR gene), non-small cell lung cancer NCI-H3255 (expressing EGFR L858R mutant gene), non-small cell lung cancer cell NCI-H3122 (expressing ALK gene), human non-small cell lung cancer cell A549 (expressing wild-type EGFR gene), human non-small cell lung cancer cell NCI-H2122 (expressing wild-type EGFR gene), human non-small cell lung cancer cell NCI-H460 (expressing wild-type EGFR gene), human non-small cell lung cancer cell PC-9 (expressing EGFR delE746_A750 mutant gene), Chinese hamster ovary cell CHO (Cricetulus griseus, hamster, Chinese, ovary), Chinese hamster lung cell CHL, human non-small cell lung cancer cell HCC827 (expressing mutant EGFR del19 gene), human lung adenocarcinoma cell HCC4006 (expressing mutant EGFR del19 gene), human non-small cell lung cancer cell NCI-H2228 (expressing wild-type ALK gene), and mouse primary B cell BaF3 were used, and the above cells were all purchased from ATCC (US). In addition, mouse BaF3-TEL-ALK (stably expressing ALK kinase), mouse BaF3-ALK-F1174L (stably expressing mutant ALK F1174L kinase), mouse BaF3-NPM-ALK (stably expressing ALK kinase), mouse BaF3-TEL-EGFR (stably expressing EGFR kinase), mouse BaF3-TEL-EGFR-T790M (stably expressing EGFR T790M mutant kinase), mouse BaF3-FL-EGFR-Del19 (stably expressing EGFR delE746_A750 mutant kinase), mouse BaF3-TEL-EGFR-L858R (stably expressing EGFR L858R mutant kinase), mouse BaF3-FL-EGFR-T790M-L858R (stably expressing EGFR T790M/L858R mutant kinase), mouse BaF3-TEL-INSR (stably expressing INSR protein), mouse BaF3-TEL-IGF1R (stably expressing IGF1R Protein), mouse BaF3-EML4-ALK (stably expressing EML4-ALK Protein), mouse BaF3-TEL-JAK3 (stably expressing JAK3 kinase protein), mouse BaF3-TEL-CSF1R (stably expressing CSF1R protein), and mouse BaF3-TEL-ALK-F1196M (stably expressing ALK F1196M mutant kinase) were also used in this example. The above cell lines were all established by our laboratory via the following process: kinase proteins or protein domain sequences of human ALK, ALK F1174L, EGFR, EGFR T790M, EGFR delE746_A750, EGFR L858, EGFR T790M/L858R, INSR, IGF1R, EML4-ALK, JAK3, CSF1R, ALK F1196M were amplified respectively by PCR, and were respectively inserted into MSCV-Puro vector (Clontech) with N-terminal TEL fragments and/or NPM fragments and/or TPR fragments; the resultants were stably transfected into mouse BaF3 cells by the means of retrovirus, and the IL-3 growth factors were removed, and eventually the ALK, ALK F1174L, EGFR, EGFR T790M, EGFR delE746_A750, EGFR L858, EGFR T790M/L858R, INSR, IGF1R, EML4-ALK, JAK3, CSF1R, ALK F1196M-transferred protein dependent cell lines were obtained.
(§4) The number of viable cells was determined quantitatively by a microplate reader using Cell Titer-Glo® (Promega, US) chemiluminescence cell viability assay kit.

BaF3-EML4-ALK = assay: Cell growth (Cell Titer-Glo viability), BaF3-EML4-ALK; conditions: Mus musculus, Ba/F3 EML4-ALK; BaF3-EML4-ALK (stably expressing EML4-ALK protein), 72 hrs
From the text: as §3, §4

BaF3-TEL-JAK3 = assay: Cell growth (Cell Titer-Glo viability), BaF3-TEL-JAK3; conditions: Mus musculus; BaF3-TEL-JAK3 (stably expressing JAK3 kinase protein), 72 hrs
From the text: as §3, §4

BaF3-TEL-CSF1R = assay: Cell growth (Cell Titer-Glo viability), BaF3-TEL-CSF1R; conditions: Mus musculus; BaF3-TEL-CSF1R (stably expressing CSF1R protein), 72 hrs
From the text: as §3, with “The above cell lines were all established by our laboratory via the following process: kinase proteins or protein domain sequences of human ALK, ALK F1174L, EGFR, EGFR T790M, EGFR delE746_A750, EGFR L858, EGFR T790M/L858R, INSR, IGF1R, EML4-ALK, JAK3, CSF1R, ALK F1196M were amplified respectively by PCR, and were respectively inserted into MSCV-Puro vector (Clontech) with N-terminal TEL fragments and/or NPM fragments and/or TPR fragments; the resultants were stably transfected into mouse BaF3 cells by the means of retrovirus, and the IL-3 growth factors were removed, and eventually the ALK, ALK F1174L, EGFR, EGFR T790M, EGFR delE746_A750, EGFR L858, EGFR T790M/L858R, INSR, IGF1R, EML4-ALK, JAK3, CSF1R, ALK F1196M-transferred protein dependent cell lines were obtained.” left out
as §4

A549 = assay: Growth of cancer cells (Cell Titer-Glo viability), A549; conditions: Homo sapiens; A549 (wild-type EGFR), 72 hrs
BaF3-TEL-ALK = assay: Cell growth (Cell Titer-Glo viability), BaF3-TEL-ALK; conditions: Mus musculus; BaF3-TEL-ALK (stably expressing ALK kinase), 72 hrs
Procedure, shortened: as §2

BaF3-TEL-EGFR-T790M = assay: Cell growth (Cell Titer-Glo viability), BaF3-TEL-EGFR-T790M; conditions: Mus musculus; BaF3-TEL-EGFR-T790M (EGFR T790M mutant kinase), 72 hrs
Procedure, shortened: as §2

BaF3-TEL-IGF1R = assay: Cell growth (Cell Titer-Glo viability), BaF3-TEL-IGF1R; conditions: Mus musculus; BaF3-TEL-IGF1R (stably expressing IGF1R protein), 72 hrs
From the text: as §3, with “The above cell lines were all established by our laboratory via the following process: kinase proteins or protein domain sequences of human ALK, ALK F1174L, EGFR, EGFR T790M, EGFR delE746_A750, EGFR L858, EGFR T790M/L858R, INSR, IGF1R, EML4-ALK, JAK3, CSF1R, ALK F1196M were amplified respectively by PCR, and were respectively inserted into MSCV-Puro vector (Clontech) with N-terminal TEL fragments and/or NPM fragments and/or TPR fragments; the resultants were stably transfected into mouse BaF3 cells by the means of retrovirus, and the IL-3 growth factors were removed, and eventually the ALK, ALK F1174L, EGFR, EGFR T790M, EGFR delE746_A750, EGFR L858, EGFR T790M/L858R, INSR, IGF1R, EML4-ALK, JAK3, CSF1R, ALK F1196M-transferred protein dependent cell lines were obtained.” left out
as §4

BaF3-NPM-ALK = assay: Cell growth (Cell Titer-Glo viability), BaF3-NPM-ALK; conditions: Mus musculus; BaF3-NPM-ALK (stably expressing ALK kinase), 72 hrs
BaF3-TEL-ALK-F1196M = assay: Cell growth (Cell Titer-Glo viability), BaF3-TEL-ALK-F1196M; conditions: Mus musculus; BaF3-TEL-ALK-F1196M (ALK F1196M mutant kinase), 72 hrs
From the text: By testing the effect of the novel kinase inhibitors on the proliferation of cancer cells, the selectivity of the compounds of the present disclosure in inhibiting the proliferation of cancer cells was further assessed. In this example, human non-small cell lung cancer cell NCI-H1975 (expressing EGFR L858R/T790M double mutant gene), human skin squamous carcinoma cell A431 (expressing wild-type EGFR gene), non-small cell lung cancer NCI-H3255 (expressing EGFR L858R mutant gene), non-small cell lung cancer cell NCI-H3122 (expressing ALK gene), human non-small cell lung cancer cell A549 (expressing wild-type EGFR gene), human non-small cell lung cancer cell NCI-H2122 (expressing wild-type EGFR gene), human non-small cell lung cancer cell NCI-H460 (expressing wild-type EGFR gene), human non-small cell lung cancer cell PC-9 (expressing EGFR delE746_A750 mutant gene), Chinese hamster ovary cell CHO (Cricetulus griseus, hamster, Chinese, ovary), Chinese hamster lung cell CHL, human non-small cell lung cancer cell HCC827 (expressing mutant EGFR del19 gene), human lung adenocarcinoma cell HCC4006 (expressing mutant EGFR del19 gene), human non-small cell lung cancer cell NCI-H2228 (expressing wild-type ALK gene), and mouse primary B cell BaF3 were used, and the above cells were all purchased from ATCC (US). […]
as §4

Row | GI50 (NCI-H1975) | GI50 (PC-9) | GI50 (HCC827) | GI50 (NCI-H3122) | GI50 (BaF3) | GI50 (BaF3-TEL-INSR) | GI50 (BaF3-EML4-ALK) | GI50 (BaF3-TEL-JAK3) | GI50 (BaF3-TEL-CSF1R) | GI50 (A549) | GI50 (BaF3-TEL-ALK) | GI50 (BaF3-TEL-EGFR-T790M) | GI50 (BaF3-TEL-IGF1R) | GI50 (BaF3-NPM-ALK) | GI50 (BaF3-TEL-ALK-F1196M) | Compound
1 | 43 nM | 6 nM |  | 2 nM | 6600 nM | 4 nM |  |  |  |  | 1 nM |  |  | 2 nM | 2 nM | C=CC(=O)Nc1cc(Nc2ncc(C)c(Nc3ccccc3S(=O)(=O)C(C)C)n2)c(OC)cc1N1CCN(CC)CC1 [Compound 84, N-(2-(4-ethylpiperazin-1-yl)-5-(4-(2-(isopropylsulfonyl)phenylamino)-5-methylpyrimidin-2-ylamino)-4-methoxyphenyl)acrylamide]
2 | 48 nM | 14 nM |  | 2 nM | 3000 nM | 7 nM |  |  |  |  | 1 nM |  |  | 1 nM | 6 nM | C=CC(=O)Nc1cc(Nc2ncc(F)c(Nc3ccccc3S(=O)(=O)C(C)C)n2)c(OC)cc1N1CCN(CC)CC1 [Compound 82, N-(2-(4-ethylpiperazin-1-yl)-5-(5-fluoro-4-(2-(isopropylsulfonyl)phenylamino)pyrimidin-2-ylamino)-4-methoxyphenyl)acrylamide]

More lines, now with the values behind:

Row | Compound | GI50 (NCI-H1975) | GI50 (PC-9) | GI50 (HCC827) | GI50 (NCI-H3122) | GI50 (BaF3) | GI50 (BaF3-TEL-INSR) | GI50 (BaF3-EML4-ALK) | GI50 (BaF3-TEL-JAK3) | GI50 (BaF3-TEL-CSF1R) | GI50 (A549) | GI50 (BaF3-TEL-ALK) | GI50 (BaF3-TEL-EGFR-T790M) | GI50 (BaF3-TEL-IGF1R) | GI50 (BaF3-NPM-ALK) | GI50 (BaF3-TEL-ALK-F1196M)
3 | C=CC(=O)Nc1cc(Nc2ncc(Cl)c(Nc3ccccc3C(=O)NC)n2)c(OC)cc1N(C)CCN(C)C [Compound 71, 2-(2-(5-acrylamido-4-((2-(dimethylamino)ethyl)(methyl)amino)-2-methoxyphenylamino)-5-chloropyrimidin-4-ylamino)-N-methylbenzamide] | 12 nM | 2 nM | 16 nM | 4.3 nM | 940 nM | 8.4 nM | 12 nM | 9 nM | 150 nM |  |  |  |  |  | 
4 | C=CC(=O)Nc1cc(Nc2ncc(Cl)c(Nc3ccccc3C(=O)NC)n2)c(OC)cc1N1CCC(N2CCOCC2)CC1 [Compound 67, 2-(2-(5-acrylamido-2-methoxy-4-(4-morpholinylpiperidin-1-yl)phenylamino)-5-chloropyrimidin-4-ylamino)-N-methylbenzamide] | 14 nM | 9.6 nM | 14 nM | 4.4 nM | 5400 nM | 1.8 nM | 35 nM | 110 nM |  | 450 nM | 13 nM | 28 nM | 7.7 nM |  | 
5 | C=CC(=O)Nc1cc(Nc2ncc(Cl)c(Nc3ccccc3C(=O)NC)n2)c(OC)cc1N1CCN(C)CC1 [Compound 64, 2-(2-(5-acrylamido-2-methoxy-4-(4-methylpiperazin-1-yl)phenylamino)-5-chloropyrimidin-4-ylamino)-N-methylbenzamide] | 50 nM | 7.2 nM | 13 nM | 4.4 nM | 2900 nM | 2.3 nM | 13 nM | 59 nM |  | 370 nM | 10 nM | 28 nM | 14 nM |  | 
